What is called IC50 is the concentration that inhibits the measured activity by half.

Results on ten molecules are retold here after patent publication US9981950B2, “Triazoles as NR2B receptor inhibitors” (Janssen Pharmaceuticals, Inc., priority 2014, dated 2018).

For experiment [1], the target named is cloned human NR1/NR2B ion channels (Homo sapiens (Human), UniProt Q05586+Q13224). The experiment is described as follows: HNR2BC: calcium influx assay on cloned human NR1/NR2B ion channels expressed in HEK cells. It counts as cell-based. The settings on record: HEK cells hNR1/NR2B, 100 μM glutamate + 100 μM glycine, 3 parameter plot. Here is the method:
HNR2BC: Effects of Test Articles on Cloned Human NR1/NR2B Ion Channels Expressed in Mammalian Cells
The ability of test compounds to act as an antagonist of NR1/NR2B were evaluated with a calcium influx assay (Calcium 5 Assay Kit, Molecular Devices).
For the antagonist assessment, NR1/NR2B was activated with the positive control agonist (Mg^2+-free HBPS+100 μM glutamic acid+100 μM glycine). The effect of each test article to inhibit the signal was examined after agonist stimulation and compared to the positive control antagonist (MK-801).
A HEK cell line, stable transfected with hNR1/NR2B was used. This tetracycline inducible cell line is transfected with GRIN1 (GeneBank accession number NM 007327.2) and GRIN2B (GeneBank accession number NM_000834.3.). The cells were cultured in cell culture flasks with DMEM/F12 supplemented with 10% FCS, 1% PenStrep and a selection of additional antibiotics.
Forty-Eight (48) hours before the assay the cells were plated into 96-well black well, flat clear bottom microtiter plates at a density of 50000 cells/well. Twenty-Four (24) hours later the receptor expression was induced by the addition of 1 μg/ml tetracycline in the presence of 2 mM ketamine and 200 μM 7-CKA. After 24 h of receptor induction the plates were used for the assay.
The medium was removed and the cells were loaded with 200 μl loading buffer (Molecular Devices) in Mg2+-free HBPS containing 100 μM 7-CKA at 37° C. for one (1) hour.
The test compounds were then solubilized in 100% DMSO and diluted to yield eight (8) different concentrations in 100% DMSO. A 96 well drug plate was prepared by diluting with water and glycine/glutamate to a 5-fold of final test concentration. Fluorescence intensity of the cells in the plate was measured in a FlexStation using an excitation wavelength of 485 nm and an emission wavelength of 525 nm. Twenty (20) seconds after starting the recordings the compounds together with the agonists glycine (100 μM) and glutamate (100 μM) were added into the wells and the fluorescence measured for ninety (90) seconds in summary.
The IC50 values provided in the paragraph below were determined using a 3 parameter plot.

The target in experiment [2] is T1, rat NR1/NR2B receptor (Rattus norvegicus (Rat), UniProt P35439+Q00960). The experiment is described as follows: NR2B binding assay: inhibition of specific [3H]-Ifenprodil binding to the rat NR1/NR2B receptor. Conditions: rat brain membranes, Hill-plot 2-parameter-model. The method, boiled down: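 Binding ran 60 min at 4 °C on washed membranes from male Wistar rat brain without cerebellum, in 5 mM Tris/1 mM EDTA, pH 7.4, and was ended by filtration through polyethylene-imine-presoaked filters. […] CP101.606 defined nonspecific binding.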

Experiment [3] addresses hERG-receptor (Homo sapiens (Human), UniProt Q12809). Description: HERGBD: inhibition of specific 3H-Dofetilide binding to the hERG-receptor. Conditions: HEK cell membranes with human ERG, Hill-plot 2-parameter-model. The method, boiled down: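 Membranes from HEK cells stably expressing human ERG incubated 90 min at RT with 1.5 nmol/l 3H-dofetilide in 20 mM HEPES/0.1 mM KCl pH 7.2, inhibitor in 1% DMSO. Nonspecific binding with […] dofetilide; bound ligand separated by filtration and scintillation counted.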

Experiment [4] deals with T1, rat NR1/NR2B receptor. The experiment is described as follows: RRNR2BB: inhibition of specific binding to the rat NR1/NR2B receptor. Conditions: [3H]-Ifenprodil binding, rat brain membranes, Hill-plot 2-parameter-model. The method, boiled down:
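Washed membranes from male Wistar rat forebrain (whole brain minus cerebellum) in 5 mM Tris/1 mM EDTA pH 7.4 used in ifenprodil-site binding, 60 min at 4° C. Nonspecific binding defined with […] CP101.606; bound separated by filtration on PEI-soaked filters. IC50 from Hill plot, 2-parameter model.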

T1 sequence (Q00960 27-1482, other chains not shown): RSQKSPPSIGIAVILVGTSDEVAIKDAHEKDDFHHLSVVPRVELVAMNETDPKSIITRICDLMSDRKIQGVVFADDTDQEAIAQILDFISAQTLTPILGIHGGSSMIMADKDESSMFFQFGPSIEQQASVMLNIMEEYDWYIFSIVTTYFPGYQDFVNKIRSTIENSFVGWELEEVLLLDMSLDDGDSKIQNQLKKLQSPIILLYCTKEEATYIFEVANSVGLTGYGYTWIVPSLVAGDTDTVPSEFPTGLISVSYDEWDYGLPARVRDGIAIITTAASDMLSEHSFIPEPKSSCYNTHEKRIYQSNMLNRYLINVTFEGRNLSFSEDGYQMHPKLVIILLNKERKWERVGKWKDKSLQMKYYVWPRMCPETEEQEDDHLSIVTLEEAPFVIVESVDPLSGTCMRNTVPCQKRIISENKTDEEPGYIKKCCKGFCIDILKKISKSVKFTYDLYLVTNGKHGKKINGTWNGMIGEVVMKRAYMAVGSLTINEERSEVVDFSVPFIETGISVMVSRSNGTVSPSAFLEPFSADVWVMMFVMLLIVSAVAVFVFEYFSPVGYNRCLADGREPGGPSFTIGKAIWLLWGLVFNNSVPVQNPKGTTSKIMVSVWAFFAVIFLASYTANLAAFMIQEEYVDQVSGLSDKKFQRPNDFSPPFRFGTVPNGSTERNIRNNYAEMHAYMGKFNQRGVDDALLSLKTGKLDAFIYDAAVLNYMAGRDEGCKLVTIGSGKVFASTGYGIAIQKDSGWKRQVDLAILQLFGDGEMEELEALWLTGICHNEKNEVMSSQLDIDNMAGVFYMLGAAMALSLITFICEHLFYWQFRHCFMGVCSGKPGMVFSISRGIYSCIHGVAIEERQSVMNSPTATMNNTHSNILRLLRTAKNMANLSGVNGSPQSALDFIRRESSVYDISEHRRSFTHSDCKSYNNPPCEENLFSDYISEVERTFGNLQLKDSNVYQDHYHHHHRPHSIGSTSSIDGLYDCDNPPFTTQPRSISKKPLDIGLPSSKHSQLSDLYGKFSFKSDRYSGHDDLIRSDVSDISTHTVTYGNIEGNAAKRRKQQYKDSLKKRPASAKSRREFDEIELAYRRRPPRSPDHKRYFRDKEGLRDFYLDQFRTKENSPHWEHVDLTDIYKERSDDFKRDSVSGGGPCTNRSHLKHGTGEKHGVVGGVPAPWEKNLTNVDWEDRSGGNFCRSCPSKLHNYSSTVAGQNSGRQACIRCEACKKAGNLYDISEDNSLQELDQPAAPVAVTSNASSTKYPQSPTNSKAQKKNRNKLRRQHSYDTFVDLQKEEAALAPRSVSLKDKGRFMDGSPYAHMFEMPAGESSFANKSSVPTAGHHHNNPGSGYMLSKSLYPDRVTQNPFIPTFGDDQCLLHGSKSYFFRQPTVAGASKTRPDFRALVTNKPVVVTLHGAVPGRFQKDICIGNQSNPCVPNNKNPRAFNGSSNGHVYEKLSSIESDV
Sequence of cloned human NR1/NR2B ion channels (Q13224 27-1484, other chains not shown): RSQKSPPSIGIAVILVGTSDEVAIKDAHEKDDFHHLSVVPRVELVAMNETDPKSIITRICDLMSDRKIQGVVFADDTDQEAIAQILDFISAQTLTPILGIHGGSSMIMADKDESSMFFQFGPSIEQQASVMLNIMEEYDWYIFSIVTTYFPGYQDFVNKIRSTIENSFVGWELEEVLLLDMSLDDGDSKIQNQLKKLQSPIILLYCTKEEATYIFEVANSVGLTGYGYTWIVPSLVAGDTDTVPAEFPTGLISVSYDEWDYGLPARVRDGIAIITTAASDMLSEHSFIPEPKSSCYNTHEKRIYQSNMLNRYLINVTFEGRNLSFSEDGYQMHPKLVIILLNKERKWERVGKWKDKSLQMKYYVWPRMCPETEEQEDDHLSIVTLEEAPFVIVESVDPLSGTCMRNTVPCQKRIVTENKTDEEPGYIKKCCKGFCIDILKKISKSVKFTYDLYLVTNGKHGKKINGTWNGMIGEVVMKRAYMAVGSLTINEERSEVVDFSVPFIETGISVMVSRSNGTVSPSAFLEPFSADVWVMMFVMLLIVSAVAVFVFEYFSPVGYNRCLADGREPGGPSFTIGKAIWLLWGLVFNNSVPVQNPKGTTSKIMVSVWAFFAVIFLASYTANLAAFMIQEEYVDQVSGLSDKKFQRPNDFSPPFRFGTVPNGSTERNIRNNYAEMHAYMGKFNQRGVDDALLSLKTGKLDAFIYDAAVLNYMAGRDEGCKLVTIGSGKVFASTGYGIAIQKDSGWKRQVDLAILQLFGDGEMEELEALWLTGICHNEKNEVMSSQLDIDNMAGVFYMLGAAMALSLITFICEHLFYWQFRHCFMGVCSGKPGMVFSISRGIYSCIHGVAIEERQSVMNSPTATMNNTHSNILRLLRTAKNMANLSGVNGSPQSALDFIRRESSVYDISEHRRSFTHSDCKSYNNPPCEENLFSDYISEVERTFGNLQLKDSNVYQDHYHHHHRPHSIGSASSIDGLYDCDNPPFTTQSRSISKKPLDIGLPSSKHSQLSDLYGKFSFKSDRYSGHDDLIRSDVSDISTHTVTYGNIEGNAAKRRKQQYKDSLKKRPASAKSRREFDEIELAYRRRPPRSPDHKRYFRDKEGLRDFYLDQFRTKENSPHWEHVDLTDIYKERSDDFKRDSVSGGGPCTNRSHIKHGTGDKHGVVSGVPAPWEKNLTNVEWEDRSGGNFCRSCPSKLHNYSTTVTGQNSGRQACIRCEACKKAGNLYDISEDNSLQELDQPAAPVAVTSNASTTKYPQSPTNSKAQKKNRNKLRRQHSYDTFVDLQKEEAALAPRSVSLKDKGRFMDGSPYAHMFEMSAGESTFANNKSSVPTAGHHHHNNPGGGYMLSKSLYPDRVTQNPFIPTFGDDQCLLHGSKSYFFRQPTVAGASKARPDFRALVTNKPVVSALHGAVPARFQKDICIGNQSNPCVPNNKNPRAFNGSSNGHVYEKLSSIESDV
Sequence of hERG-receptor (Q12809 whole entry): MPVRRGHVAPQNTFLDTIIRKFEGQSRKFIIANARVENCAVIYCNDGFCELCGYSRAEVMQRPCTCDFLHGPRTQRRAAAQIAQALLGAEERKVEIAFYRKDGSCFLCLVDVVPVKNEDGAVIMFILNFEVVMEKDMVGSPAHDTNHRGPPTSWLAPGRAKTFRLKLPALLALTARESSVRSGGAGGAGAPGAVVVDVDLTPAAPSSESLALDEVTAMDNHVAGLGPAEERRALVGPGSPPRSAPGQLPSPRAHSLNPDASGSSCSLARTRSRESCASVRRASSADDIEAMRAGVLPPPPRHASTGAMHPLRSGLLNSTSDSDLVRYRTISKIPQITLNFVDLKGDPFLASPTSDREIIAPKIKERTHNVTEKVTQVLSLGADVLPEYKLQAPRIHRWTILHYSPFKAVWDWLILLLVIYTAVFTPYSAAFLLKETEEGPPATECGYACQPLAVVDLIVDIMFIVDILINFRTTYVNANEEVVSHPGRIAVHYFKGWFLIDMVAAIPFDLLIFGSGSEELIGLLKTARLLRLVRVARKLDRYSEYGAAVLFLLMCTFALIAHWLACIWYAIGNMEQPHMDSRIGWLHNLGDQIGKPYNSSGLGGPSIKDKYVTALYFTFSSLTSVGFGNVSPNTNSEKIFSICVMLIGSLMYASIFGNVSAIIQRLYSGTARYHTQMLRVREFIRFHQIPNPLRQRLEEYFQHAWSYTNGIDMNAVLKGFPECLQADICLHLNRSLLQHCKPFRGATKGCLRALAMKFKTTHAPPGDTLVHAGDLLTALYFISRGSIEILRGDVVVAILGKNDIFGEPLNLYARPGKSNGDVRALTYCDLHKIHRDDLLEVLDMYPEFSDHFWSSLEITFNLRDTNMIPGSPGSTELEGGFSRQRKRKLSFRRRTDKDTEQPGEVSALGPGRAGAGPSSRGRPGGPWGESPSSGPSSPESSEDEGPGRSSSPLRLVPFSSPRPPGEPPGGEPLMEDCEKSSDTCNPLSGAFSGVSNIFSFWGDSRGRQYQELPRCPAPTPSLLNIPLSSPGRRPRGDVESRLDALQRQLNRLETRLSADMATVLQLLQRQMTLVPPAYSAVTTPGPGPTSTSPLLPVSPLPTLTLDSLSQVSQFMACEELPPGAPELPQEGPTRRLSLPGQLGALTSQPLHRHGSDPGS

In the case of `CCc1nccn1Cc1cn(-c2ccc(F)c(Cl)c2)nn1` [Example 42, 1-(3-Chloro-4-fluoro-phenyl)-4-(2-ethyl-imidazol-1-ylmethyl)-1H-[1,2,3]triazole], the IC50 in experiment [1] was found to be 3170 nM.
For the molecule `CC(C)c1nccn1Cc1cn(-c2ccc(Cl)c(OC(F)F)c2)nn1` [Example 97, 1-(4-Chloro-3-difluoromethoxy-phenyl)-4-(2-isopropyl-imidazol-1-ylmethyl)-1H-[1,2,3]triazole], the IC50 in experiment [1] was 580 nM.
Turning to `Cc1nccn1Cc1cn(-c2ccc(F)c(OC(F)F)c2)nn1` [Example 100, 1-(3-Difluoromethoxy-4-fluoro-phenyl)-4-(2-methyl-imidazol-1-ylmethyl)-1H-[1,2,3]triazole], the concentration for half-maximal inhibition (IC50) amounted to 1.9 nM in experiment [2], 12800 nM in experiment [3] and 1.9 nM in experiment [4].
`Cc1nccn1Cc1cn(-c2cc(F)cc(C(F)F)c2)nn1` [Example 102]: the results for the IC50 in experiment [2], in experiment [3] and in experiment [4] were 25.9 nM, 16800 nM and 25.9 nM, respectively.
Consider `Cc1nccn1Cc1cn(-c2ccc(F)c(C(C)(F)F)c2)nn1` [Example 105, 1-[3-(1,1-Difluoro-ethyl)-4-fluoro-phenyl]-4-(2-methyl-imidazol-1-ylmethyl)-1H-[1,2,3]triazole], for which the figures for the IC50 in experiment [2], in experiment [3] and in experiment [4] were 4.05 nM, 73100 nM and 4.05 nM, respectively.
Regarding `Nc1nccn1Cc1cn(-c2cc(F)cc(C(F)F)c2)nn1` [Example 111, 4-(2-amino-imidazol-1-ylmethyl)-1-(3-fluoro-5-difluoromethyl-phenyl)-1H-[1,2,3]triazole], the IC50 in experiment [1] is 3420 nM; in experiment [3], 3290 nM.
Consider `Fc1ccc(-n2cc(Cc3cc[nH]n3)nn2)cc1C(F)F` [Example 115, 1-(3-difluoromethyl-4-fluoro-phenyl)-4-(1H-pyrazol-3-ylmethyl)-1H-[1,2,3]triazole], for which the IC50 in experiment [1] was determined as 10500 nM.
For the molecule `Cc1ccc(C(=O)c2nccn2Cc2cn(-c3ccc(Cl)cc3)nn2)cc1` [Example 116, [1-[[1-(4-chlorophenyl)triazol-4-yl]methyl]imidazol-2-yl]-(p-tolyl)methanone], the IC50 was 22400 nM in experiment [1] and more than 5000 nM in experiment [4].
As to `Cc1nc2ccccc2n1Cc1cn(-c2ccc(Cl)c(Cl)c2)nn1` [Example 117, 1-[[1-(3,4-dichlorophenyl)triazol-4-yl]methyl]-2-methyl-benzimidazole], the IC50 in experiment [2] was 141 nM; in experiment [3] it was 3090 nM; in experiment [4], 141 nM.
For `OCCc1nccn1Cn1cc(-c2ccc(S(F)(F)(F)(F)F)cc2)nn1` [Example 118, 2-(1-((1-(4-(pentafluoro-l6-sulfanyl)phenyl)-1H-1,2,3-triazol-4-yl)methyl)-1H-imidazol-2-yl)ethan-1-ol], the IC50 in experiment [2] worked out at 263 nM; in experiment [3], 12300 nM; in experiment [4], 263 nM.
